9 compounds from PubChem BioAssay (NCI) can be followed below.

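Cultured in 96-well plates, cells were exposed to test compound for 48 hours across five concentrations. Abbreviation: GI50, concentration required for 50% inhibition of growth. TGI: concentration producing complete growth inhibition.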

Common to all, as to test: NCI anticancer screen, dose series, 48 h
Test [1] concerns DMS 114 small cell lung.
Test [2] concerns K-562 leukemia.
Test [3] deals with SNB-78 CNS.
Test [4] relates to LXFL 529 NSCLC.
For test [5], the system named is RXF 393 renal.
The subject of test [6] is M19-MEL melanoma.
The subject of test [7] is NCI-H522 lung.
In test [8] the test system is DLD-1 colon.
Test [9] relates to KM20L2 colon.
In test [10] the test system is SK-MEL-5 melanoma.
The subject of test [11] is RXF-631 renal.

As for `CCN(CC)CC(=N)N(CC)c1ccccc1`, the TGI in test [1], in test [2], in test [3], in test [4], in test [5] and in test [6] was > 100 µM throughout. Besides, the TGI in [7], in test [8], in test [9] and in test [10] was > 100 µM each time.
As for `Cn1c(=O)c2/c(n(C)c1=O)=N\C=c1\c(=O)n(C)c(=O)n(C)\c1=N\C=2`, the TGI in test [1], in [2], in test [3], in test [4], in test [5] and in test [6] was > 100 µM throughout. Moreover, the TGI in [7], in [8], in test [9], in [11] and in test [10] was > 100 µM each time.
Consider `O=C1CSc2cc([N+](=O)[O-])ccc2N1`, for which the TGI in [1], in test [2], in test [3], in [4], in [5] and in test [6] was > 100 µM each time. Further, the TGI in test [7], in test [8], in [9], in test [11] and in test [10] was > 100 µM each time.
`CC1(C)N=C(c2ccccn2)C(c2ccccn2)=NC1(C)C`: the TGI in [1], in test [2], in test [3], in test [4], in [5] and in [6] was > 100 µM throughout. Further, the TGI in test [8], in test [9], in test [11] and in [10] was > 100 µM in each case.
For the compound `C/C=N\N1C(=O)c2ccccc2C1=O`, the TGI in [1], in test [2], in test [3], in test [4], in test [5] and in [6] was > 100 µM throughout. Moreover, the TGI in test [8], in test [9], in [11] and in test [10] was > 100 µM each time.
Regarding `C=C1C(=O)OC2CC3(C)OC3CC/C(C)=C/C(OC(C)=O)C12` (configuration not stated), the TGI in test [1] came to 23 µM; in test [2], 15.4 µM; in test [3], 35.1 µM; in test [4] it was 5.92 µM; in [5], 16.4 µM; in test [6], 22.3 µM. For the same compound, the TGI was determined as 2.64 µM in [7], 7.81 µM in test [8], 20 µM in [9] and 20.4 µM in test [10].
As for `O=C(/C=C\c1cccc2ccccc12)c1cccc2ccccc12`, the GI50 in [2] is 2.82 µM; in test [4], 2.9 µM; in [5], 7.46 µM; in [7] it was 4.46 µM; in test [8] it was 3.43 µM; in [9], 3.96 µM. In addition, the GI50 in test [11] is 10.5 µM. For the same compound, the TGI was 18.6 µM in [2]; 13.6 µM in [4]; 20.1 µM in test [5]; 33.6 µM in [6]; 16.1 µM in test [7]; 15.8 µM in test [8]. Besides, the TGI in test [9] was determined as 15 µM; in [11] it was 26.4 µM; in [10] it was 27.1 µM.
Consider `O=C1c2ccccc2C(=O)c2[nH]c(Cc3ccc(F)cc3)nc21`, for which the TGI in test [2] is > 100 µM; in [4], 88.2 µM; in [5] it was 30.2 µM; in test [6] it was 34.2 µM; in test [7] it was 34.3 µM; in test [8], 8.21 µM. The TGI in test [9] was determined as 34.4 µM; in test [11] it was 44.8 µM.
With `CN1C/C(=C\C=C\c2ccccc2)C(=O)/C(=C/C=C/c2ccccc2)C1`, the TGI in test [1], in [2], in test [3], in test [4], in test [5] and in test [6] was > 100 µM in each case. The TGI in test [7], in test [8], in test [9], in test [11] and in [10] was > 100 µM each time.
